This is an account of results in patent US4916135A, “N-heteroaryl-4-quinolinamines” (priority 1989, dated 1990).

Where a name gives a salt, the structure may show the parent alone. Read-outs that look alike come from different tables or passages of the source.

Assay [1] concerns 2-phenyl-1,4-benzoquinone-induced writhing. Description: 2-phenyl-1,4-benzoquinone-induced writhing (PQW) test in mice (analgesic activity). The conditions noted are these: for inhibition in vivo at 20 mg/kg: Mus musculus, sc, read-out: PQW Percent inhibition. The format is in vivo. Here is the method: Compounds I of the present invention are useful as analgesic agents due to their ability to alleviate pain in mammals. […] Exptl. Biol. Med., 95, 729 (1957)].
The results of some of the compounds of this invention (expressed in terms of percent inhibition at 20 mg/kg, s.c.) are shown in Table 1 along with that of a prior art compound.
For orientation: An intraperitoneal irritant provokes the stretching counted in writhing tests.

Assay [2] deals with Scopolamine Induced Memory Deficit. Briefly: scopolamine-induced Dark Avoidance Assay. The class given is in vivo. The conditions noted are these: s.c., mice, 24 hours. Here is the method: In this assay mice are tested for their ability to remember an unpleasant stimulus for a period of 24 hours. A mouse is placed in a chamber that contains a dark compartment; a strong incandescent light drives it to the dark compartment, where an electric shock is administered through metal plates on the floor. The animal is removed from the testing apparatus and tested again, 24 hours later, for the ability to remember the electric shock.
If scopolamine, an anticholinergic that is known to cause memory impairment, is administered before an animal's initial exposure to the test chamber, the animal re-enters the dark compartment shortly after being placed in the test chamber 24 hours later. This effect of scopolamine is blocked by an active test compound, resulting in a greater interval before re-entry into the dark compartment.
The results for an active compound are expressed as the percent of a group of animals in which the effect of scopolamine is blocked, as manifested by an increased interval between being placed in the test chamber and re-entering the dark compartment.
Test results of scopolamine-induced Dark Avoidance Assay for representative compounds of this invention are presented in Table 2 along with that of a reference compound.

On to `C#CCn1ccc(=Nn2cccc2)c2ccc(Cl)cc21` [7-Chloro-1-(2-propynyl)-N-(1H-pyrrol-1-yl)-4(1H)-quinolinimine], for which the inhibition in vivo at 20 mg/kg in assay [1] (at 20 mg/kg, s.c., mice) was determined as 48%.

Regarding `CCN(CC)Cc1cccn1Nc1ccnc2cc(Cl)ccc12` [7-Chloro-N-(2-diethylaminomethyl-1H-pyrrol-1-yl)-4-quinolinamine], in assay [1] (at 20 mg/kg, s.c., mice), the inhibition in vivo at 20 mg/kg was found to be 55%.

On to `Cl.c1ccc2c(Nn3cccc3)c3c(nc2c1)CCCC3` [N-(1H-Pyrrol-1-yl)-1,2,3,4-tetrahydro-9-acridinamine hydrochloride], for which the inhibition in vivo at 20 mg/kg in assay [1] is 43%. The “% of Animals with Scopolamine Induced Memory Deficit Reversal” value (from here on “% of Animals”) in assay [2] (0.63 mg/kg of body weight) amounted to 20%.

Consider `CCCN(c1ccnc2cc(Cl)ccc12)n1ccc(C=O)c1` [1-[(7-Chloro-4-quinolinyl)propylamino]-1H-pyrrole-3-carboxaldehyde], for which the inhibition in vivo at 20 mg/kg in assay [1] (at 20 mg/kg, s.c., mice) came out at 42%.

Take `Cl.FC(F)(F)c1ccc2c(Nn3cccc3)ccnc2c1` [N-(1H-Pyrrol-1-yl)-7-trifluoromethyl-4-quinolinamine hydrochloride]: in assay [1] (at 20 mg/kg, s.c., mice), the inhibition in vivo at 20 mg/kg worked out at 48%. The “% of Animals” value in assay [2] (1.25 mg/kg of body weight) is reported as 40%.

As for `CCCN(c1ccnc2cc(Cl)ccc12)n1cccc1.O=C(O)/C=C\C(=O)O` [7-Chloro-N-propyl-N-(1H-pyrrol-1-yl)-4-quinolinamine maleate], the inhibition in vivo at 20 mg/kg in assay [1] (at 20 mg/kg, s.c., mice) is 42%. In addition, in assay [2] (0.31 mg/kg of body weight), the “% of Animals” value is reported as 20%.

Turning to `c1ccc2c(Nn3c4ccccc4c4ccccc43)ccnc2c1` [N-(4-Quinolinyl)-9H-carbazol-9-amine hydrochloride], the inhibition in vivo at 20 mg/kg in assay [1] (at 20 mg/kg, s.c., mice) was 30%.

In the case of `Cc1cn(Nc2ccnc3ccccc23)c2ccccc12` [N-(3-Methyl-1H-indol-1-yl)-4-quinolinamine hydrochloride], the inhibition in vivo at 20 mg/kg in assay [1] (at 20 mg/kg, s.c., mice) came to 44%.

Regarding `CNC(=O)Oc1ccc2c(c1)[C@]1(C)CCN(C)[C@@H]1N2C` [Physostigmine, reference compound], the “% of Animals” value in assay [2] (0.31 mg/kg of body weight) came to 20%.

Consider `c1ccc2c(c1)ccn2Nc1ccnc2ccccc12` [N-(1H-Indol-1-yl)-4-quinolinamine maleate], for which the inhibition in vivo at 20 mg/kg in assay [1] (at 20 mg/kg, s.c., mice) was 32%.

As for `CCCN(c1ccnc2cc(Cl)ccc12)n1cccc1C=O` [1-[(7-Chloro-4-quinolinyl)propylamino]-1H-pyrrole-2-carboxaldehyde], in assay [1] (at 20 mg/kg, s.c., mice), the inhibition in vivo at 20 mg/kg was determined as 31%.

As for `CCCN(c1c2c(nc3ccccc13)CCCC2)n1cc(C)c2ccccc21` [N-(3-Methyl-1H-indol-1-yl)-N-propyl-1,2,3,4-tetrahydro-9-acridinamine], the inhibition in vivo at 20 mg/kg in assay [1] (at 20 mg/kg, s.c., mice) turned out to be 42%.

As for `Clc1ccc2c(Nn3cccc3CN3CCCCC3)ccnc2c1` [7-Chloro-N-[2-(1-piperidinyl)methyl-1H-pyrrol-1-yl]-4-quinolinamine], the inhibition in vivo at 20 mg/kg in assay [1] (at 20 mg/kg, s.c., mice) turned out to be 35%.

For `CCCN(c1ccnc2ccccc12)n1c2ccccc2c2ccccc21` [N-Propyl-N-(4-quinolinyl)-9H-carbazol-9-amine], in assay [1] (at 20 mg/kg, s.c., mice), the inhibition in vivo at 20 mg/kg amounted to 55%.

For the molecule `Cl.c1ccc2c(Nn3cccc3)ccnc2c1` [N-(1H-Pyrrol-1-yl)-4-quinolinamine hydrochloride], the inhibition in vivo at 20 mg/kg in assay [1] (at 20 mg/kg, s.c., mice) came to 26%. In assay [2] (0.16 mg/kg of body weight), the “% of Animals” value is on record as 47%.

On to Propoxyphene [reference compound], for which the “PQW Percent inhibition” value in assay [1] (at 3.9 mg/kg, s.c., mice, reference compound) was found to be 50%.

On to `CCCN(c1ccnc2ccccc12)n1cccc1` [N-Propyl-N-(1H-pyrrol-1-yl)-4-quinolinamine], for which the inhibition in vivo at 20 mg/kg in assay [1] (at 20 mg/kg, s.c., mice) stood at 33%. The “% of Animals” value in assay [2] (0.16 mg/kg of body weight) stood at 33%.
